This note sets out measurements from article PMC7827406, “Structure–Activity Relationship (SAR) Study of Spautin-1 to Entail the Discovery of Novel NEK4 Inhibitors” (International Journal of Molecular Sciences, 2021).

Where two headings read alike, the source gives them in different places.

Common to all, as to test: biochemical
Common to all, as to parameters: Eurofins KinaseProfiler full panel at Km ATP, residual kinase activity (%) relative to DMSO

Test [1] addresses T1, B-Raf(h) (Homo sapiens, UniProt P15056).
T1 construct: gene BRAF
The gist of the method: (§1)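 Two 10 µM single-concentration screens were run: a competition-binding screen, in which DNA-tagged kinase bound to immobilized ligands was quantified by qPCR, and a radiometric activity panel at Km ATP. Each is expressed as residual kinase activity (%).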

Test [2] addresses T2, CaMKIδ(h) (Homo sapiens, UniProt Q8IU85).
T2 construct: gene CAMK1D
In a few lines:
as §1

The target of test [3] is T3, MAK(h) (Homo sapiens, UniProt P20794).
T3 sequence (P20794 1-623): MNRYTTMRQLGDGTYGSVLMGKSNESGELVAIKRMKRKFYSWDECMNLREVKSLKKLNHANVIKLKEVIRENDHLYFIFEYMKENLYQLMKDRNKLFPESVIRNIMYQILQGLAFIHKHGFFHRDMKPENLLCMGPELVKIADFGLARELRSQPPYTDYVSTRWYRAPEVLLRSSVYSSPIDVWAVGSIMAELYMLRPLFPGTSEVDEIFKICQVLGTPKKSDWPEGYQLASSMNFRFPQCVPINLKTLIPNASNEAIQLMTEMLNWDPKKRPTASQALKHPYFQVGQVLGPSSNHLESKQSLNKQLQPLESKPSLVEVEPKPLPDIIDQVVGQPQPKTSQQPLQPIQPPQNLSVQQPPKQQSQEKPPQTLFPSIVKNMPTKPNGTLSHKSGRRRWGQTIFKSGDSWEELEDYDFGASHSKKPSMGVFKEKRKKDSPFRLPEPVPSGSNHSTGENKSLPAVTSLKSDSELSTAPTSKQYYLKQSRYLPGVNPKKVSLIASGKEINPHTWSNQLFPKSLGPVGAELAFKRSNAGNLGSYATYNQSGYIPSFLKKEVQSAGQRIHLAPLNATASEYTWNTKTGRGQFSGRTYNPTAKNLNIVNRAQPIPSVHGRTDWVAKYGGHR
In a few lines: as §1

Test [4] concerns the target T4, TAO1(h) (Homo sapiens, UniProt Q7L7X3).
T4 construct: gene TAOK1
T4 sequence (Q7L7X3 1-1001): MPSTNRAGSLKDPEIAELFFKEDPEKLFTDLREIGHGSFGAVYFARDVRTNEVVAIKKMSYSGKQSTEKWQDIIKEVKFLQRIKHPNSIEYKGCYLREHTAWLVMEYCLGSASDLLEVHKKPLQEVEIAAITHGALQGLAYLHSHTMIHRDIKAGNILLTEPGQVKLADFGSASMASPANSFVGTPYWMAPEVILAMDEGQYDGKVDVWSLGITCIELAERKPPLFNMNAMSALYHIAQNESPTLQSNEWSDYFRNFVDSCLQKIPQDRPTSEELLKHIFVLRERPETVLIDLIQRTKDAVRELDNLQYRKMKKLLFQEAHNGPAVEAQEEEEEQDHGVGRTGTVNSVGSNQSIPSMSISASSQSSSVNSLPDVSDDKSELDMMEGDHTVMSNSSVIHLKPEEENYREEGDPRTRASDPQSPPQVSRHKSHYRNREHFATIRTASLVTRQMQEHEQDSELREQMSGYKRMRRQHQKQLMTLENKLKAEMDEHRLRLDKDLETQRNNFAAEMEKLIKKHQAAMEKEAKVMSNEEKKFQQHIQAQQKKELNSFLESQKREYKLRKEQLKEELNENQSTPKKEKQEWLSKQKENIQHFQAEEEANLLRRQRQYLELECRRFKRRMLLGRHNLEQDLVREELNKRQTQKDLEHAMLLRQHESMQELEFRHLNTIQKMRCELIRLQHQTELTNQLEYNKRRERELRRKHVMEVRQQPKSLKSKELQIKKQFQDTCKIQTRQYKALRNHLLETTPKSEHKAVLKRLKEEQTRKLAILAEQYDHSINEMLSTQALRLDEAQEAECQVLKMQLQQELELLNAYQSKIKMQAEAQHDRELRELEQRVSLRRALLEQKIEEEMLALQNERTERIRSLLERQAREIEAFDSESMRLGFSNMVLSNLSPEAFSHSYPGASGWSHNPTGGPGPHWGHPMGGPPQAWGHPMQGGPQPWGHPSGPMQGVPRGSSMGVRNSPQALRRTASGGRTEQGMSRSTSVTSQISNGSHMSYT
The gist of the method:
as §1

For test [5], the target named is T5, c-RAF(h) (Homo sapiens, UniProt P04049).
T5 construct: gene RAF1
The gist of the method: as §1

Test [6] addresses T6, cKit(h) (Homo sapiens, UniProt P10721).
T6 construct: gene KIT
The gist of the method: as §1

Setting [7] is: read-out: Residual activity (%) Spautin-1 5aa.
Where [8] appears, read: read-out: Residual activity (%) 5as.
The mark [9] stands for this setting: read-out: Residual activity (%) 5at.
Where [10] appears, read: read-out: Residual activity (%) 5ay.

T5 sequence (P04049 whole entry): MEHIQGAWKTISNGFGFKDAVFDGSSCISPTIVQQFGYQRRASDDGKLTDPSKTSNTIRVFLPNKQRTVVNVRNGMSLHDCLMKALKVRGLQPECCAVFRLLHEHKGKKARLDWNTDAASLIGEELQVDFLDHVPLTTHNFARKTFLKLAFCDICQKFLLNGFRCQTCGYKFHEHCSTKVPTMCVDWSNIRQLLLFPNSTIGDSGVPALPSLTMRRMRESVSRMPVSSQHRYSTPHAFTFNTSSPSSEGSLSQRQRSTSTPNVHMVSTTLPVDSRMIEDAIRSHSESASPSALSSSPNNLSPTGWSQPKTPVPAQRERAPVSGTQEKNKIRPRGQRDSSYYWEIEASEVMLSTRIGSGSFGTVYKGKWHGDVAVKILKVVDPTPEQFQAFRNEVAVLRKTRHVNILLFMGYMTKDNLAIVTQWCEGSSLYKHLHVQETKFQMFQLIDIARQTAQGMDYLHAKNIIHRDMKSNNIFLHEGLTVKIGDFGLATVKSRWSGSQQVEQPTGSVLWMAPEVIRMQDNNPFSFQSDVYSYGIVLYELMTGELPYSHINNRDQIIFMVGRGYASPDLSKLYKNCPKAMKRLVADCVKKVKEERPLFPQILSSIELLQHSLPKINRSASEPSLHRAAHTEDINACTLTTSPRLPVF
T2 sequence (Q8IU85 whole entry): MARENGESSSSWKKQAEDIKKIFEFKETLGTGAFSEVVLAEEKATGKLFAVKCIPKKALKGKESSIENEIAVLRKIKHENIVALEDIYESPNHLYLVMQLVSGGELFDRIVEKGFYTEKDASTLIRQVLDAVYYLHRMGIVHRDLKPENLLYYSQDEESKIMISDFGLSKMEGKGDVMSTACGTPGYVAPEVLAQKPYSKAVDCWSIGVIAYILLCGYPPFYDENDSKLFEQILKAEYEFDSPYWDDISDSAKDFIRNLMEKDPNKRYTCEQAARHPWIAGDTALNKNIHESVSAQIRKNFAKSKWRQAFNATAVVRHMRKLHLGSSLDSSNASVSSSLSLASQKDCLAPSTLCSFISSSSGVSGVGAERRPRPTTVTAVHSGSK
T6 sequence (P10721 whole entry): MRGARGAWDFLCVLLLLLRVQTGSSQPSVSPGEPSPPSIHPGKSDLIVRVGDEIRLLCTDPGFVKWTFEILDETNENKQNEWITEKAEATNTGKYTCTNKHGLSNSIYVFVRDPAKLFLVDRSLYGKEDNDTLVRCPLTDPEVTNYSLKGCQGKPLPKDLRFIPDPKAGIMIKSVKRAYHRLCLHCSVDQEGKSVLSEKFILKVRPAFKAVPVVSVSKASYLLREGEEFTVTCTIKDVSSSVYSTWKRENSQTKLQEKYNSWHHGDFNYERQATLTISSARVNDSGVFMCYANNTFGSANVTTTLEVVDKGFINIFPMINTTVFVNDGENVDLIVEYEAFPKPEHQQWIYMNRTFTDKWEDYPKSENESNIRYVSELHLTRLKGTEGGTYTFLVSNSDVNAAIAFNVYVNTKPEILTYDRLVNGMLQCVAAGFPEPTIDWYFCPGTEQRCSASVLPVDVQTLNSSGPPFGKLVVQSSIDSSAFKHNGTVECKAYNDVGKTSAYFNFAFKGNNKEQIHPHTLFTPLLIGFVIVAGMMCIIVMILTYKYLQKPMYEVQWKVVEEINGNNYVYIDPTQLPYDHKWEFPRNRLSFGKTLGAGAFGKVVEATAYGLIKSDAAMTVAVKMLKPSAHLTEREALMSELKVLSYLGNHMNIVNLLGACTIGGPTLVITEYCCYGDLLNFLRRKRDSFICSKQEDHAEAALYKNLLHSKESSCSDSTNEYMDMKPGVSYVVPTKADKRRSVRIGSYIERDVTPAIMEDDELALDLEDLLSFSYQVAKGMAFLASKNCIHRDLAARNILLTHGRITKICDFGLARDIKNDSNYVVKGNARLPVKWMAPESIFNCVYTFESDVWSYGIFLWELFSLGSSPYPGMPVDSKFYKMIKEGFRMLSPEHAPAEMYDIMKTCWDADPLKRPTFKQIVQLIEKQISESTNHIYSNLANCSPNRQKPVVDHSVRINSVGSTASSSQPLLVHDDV
T1 sequence (P15056 whole entry): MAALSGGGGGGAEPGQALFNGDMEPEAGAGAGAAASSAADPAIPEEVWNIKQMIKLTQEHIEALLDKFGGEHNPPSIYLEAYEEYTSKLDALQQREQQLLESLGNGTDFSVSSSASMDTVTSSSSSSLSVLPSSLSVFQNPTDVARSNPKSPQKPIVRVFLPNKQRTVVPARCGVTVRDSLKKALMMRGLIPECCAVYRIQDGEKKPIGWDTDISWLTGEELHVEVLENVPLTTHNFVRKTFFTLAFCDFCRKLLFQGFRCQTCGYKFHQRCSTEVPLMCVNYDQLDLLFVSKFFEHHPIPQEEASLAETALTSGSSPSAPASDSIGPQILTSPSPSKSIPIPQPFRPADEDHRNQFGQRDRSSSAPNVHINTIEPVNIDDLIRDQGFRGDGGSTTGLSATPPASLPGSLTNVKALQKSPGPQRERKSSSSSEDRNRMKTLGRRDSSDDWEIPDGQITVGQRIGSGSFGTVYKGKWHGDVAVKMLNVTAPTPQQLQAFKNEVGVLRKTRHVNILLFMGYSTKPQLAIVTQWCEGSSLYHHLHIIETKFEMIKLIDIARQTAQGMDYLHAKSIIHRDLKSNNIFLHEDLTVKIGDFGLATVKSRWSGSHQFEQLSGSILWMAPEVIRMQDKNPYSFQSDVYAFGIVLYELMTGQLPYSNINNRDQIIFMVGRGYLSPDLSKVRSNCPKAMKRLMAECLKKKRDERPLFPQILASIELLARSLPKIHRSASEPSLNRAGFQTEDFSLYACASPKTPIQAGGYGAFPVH

With `Fc1ccc(CNc2ncnc3ccc(F)cc23)cc1` [5aa, 6-Fluoro-N-(4-fluorobenzyl)-4-Quinazolinamine], the remaining activity at 10 µM in test [1] (setting [7]) was 90%; in test [2] (setting [7]), 91%; in test [3] (setting [7]) it was 89%; in test [4] (setting [7]) it was 99%; in test [5] (setting [7]), 110%; in test [6] (setting [7]), 93%.
Consider `Fc1ccc(CCNc2ncnc3ccc(F)cc23)cc1` [5as, 6-Fluoro-N-[2-(4-Fluorophenyl)Ethyl]-4-Quinazolinamine], for which the remaining activity at 10 µM in test [1] (setting [8]) was 83%; in test [2] (setting [8]), 90%; in test [3] (setting [8]) it was 77%; in test [4] (setting [8]), 104%; in test [5] (setting [8]), 114%; in test [6] (setting [8]) it was 78%.
Take `Fc1ccc2ncnc(NCCc3ccc(Cl)cc3)c2c1` [5at, N-[2-(4-Chlorophenyl)Ethyl]-6-Fluoro-4-Quinazolinamine]: the remaining activity at 10 µM in test [1] (setting [9]) is 92%; in test [2] (setting [9]), 92%; in test [3] (setting [9]) it was 76%; in test [4] (setting [9]) it was 97%; in test [5] (setting [9]), 117%; in test [6] (setting [9]), 71%.
For the molecule `COc1ccc2ncnc(Nc3cccc(F)c3)c2c1` [5ay, N-(3-Fluorophenyl)-6-Methoxy-4-Quinazolinamine], the remaining activity at 10 µM was found to be 82% in test [1] (setting [10]); 89% in test [2] (setting [10]); 74% in test [3] (setting [10]); 95% in test [4] (setting [10]); 102% in test [5] (setting [10]); 83% in test [6] (setting [10]).
